Assay results as given in patent US10219516B2, “Molecules having pesticidal utility, and intermediates, compositions, and processes, related thereto” (priority 2015, dated 2019).

Tests used:
[1] = system: Beet Armyworm (Spodoptera exigua, LAPHEG); assay: Bioassay on Beet Armyworm (BAW), 128-well diet tray assay; type: in vivo; details: Beet Armyworm, 128-well diet tray assay, read-out: BAW rating
In short: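 In a 128-well format, eight wells per compound received a surface dose of 50 μg/cm^2 on artificial diet. After drying, each well got one to five second instar larvae, held at 25° C. with 14:10 photoperiod. Mortality percentages after five to seven days were averaged.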

[2] = system: Cabbage Looper (Trichoplusia ni, TRIPNI); assay: Bioassay on Cabbage Looper (CL), 128-well diet tray assay; type: in vivo; details: Trichoplusia ni; Cabbage Looper, 128-well diet tray assay; read-out: CL rating
In short: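 Second-instar larvae, one to five per well, placed on artificial diet treated with 50 μg/cm^2 test molecule in 90:10 acetone-water, dried before infestation. Held 5–7 days at 25° C, 14:10 light-dark; percent mortality averaged over eight wells.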

O=C(Nc1ccc(-c2ncco2)cc1)c1cc(NC(=O)[C@H]2[C@H](c3cc(Cl)cc(Cl)c3)C2(Cl)Cl)ccc1Cl (relative stereo) [F446, trans-2-Chloro-5-(2,2-dichloro-3-(3,5-dichlorophenyl)cyclopropane-1-carboxamido)-N-(4-(oxazol-2-yl)phenyl)benzamide]
pest or weed control at 50 µg/cm2 [1]: 50 to 100% | pest or weed control at 50 µg/cm2 [2]: 50 to 100%

O=C(Nc1ccc2c(ccn2Cc2ccccc2)c1)c1cc(NC(=O)[C@H]2[C@H](c3cc(Cl)cc(Cl)c3)C2(Cl)Cl)ccc1Cl (relative stereo) [F458, N-(1-Benzyl-1H-indol-5-yl)-2-chloro-5-(trans)-(2,2-dichloro-3-(3,5-dichlorophenyl)cyclopropane-1-carboxamido)benzamide]
pest or weed control at 50 µg/cm2 [1]: 50 to 100% | pest or weed control at 50 µg/cm2 [2]: 50 to 100%

O=C(Nc1ccc2[nH]c(C(F)(F)F)cc2c1)c1cc(NC(=O)[C@H]2[C@H](c3cc(Cl)cc(Cl)c3)C2(Cl)Cl)ccc1Cl (relative stereo) [F465, 2-Chloro-5-(trans)-(2,2-dichloro-3-(3,5-dichlorophenyl)cyclopropane-1-carboxamido)-N-(2-(trifluoromethyl)-1H-indol-5-yl)benzamide]
pest or weed control at 50 µg/cm2 [1]: 50 to 100% | pest or weed control at 50 µg/cm2 [2]: 50 to 100%

CN(C(=O)OC(C)(C)C)c1cc(NC(=O)c2cc(NC(=O)[C@H]3[C@H](c4cc(Cl)cc(Cl)c4)C3(Cl)Cl)ccc2Cl)ccc1F (relative stereo) [F471, trans-tert-Butyl (5-(2-chloro-5-(2,2-dichloro-3-(3,5-dichlorophenyl)cyclopropane-1-carboxamido)benzamido)-2-fluorophenyl)(methyl)carbamate]
pest or weed control at 50 µg/cm2 [1]: 50 to 100% | pest or weed control at 50 µg/cm2 [2]: 50 to 100%

CC(C)(C)OC(=O)n1ccc2cc(NC(=O)c3cc(NC(=O)[C@H]4[C@H](c5cc(Cl)cc(Cl)c5)C4(Cl)Cl)ccc3Cl)ccc21 (relative stereo) [F484, tert-Butyl 5-(2-chloro-5-(trans)-(2,2-dichloro-3-(3,5-dichlorophenyl)cyclopropane-1-carboxamido)benzamido)-1H-indole-1-carboxylate]
pest or weed control at 50 µg/cm2 [1]: 50 to 100% | pest or weed control at 50 µg/cm2 [2]: 50 to 100%

CC(C)(C)OC(=O)Nc1cccc(NC(=O)c2cc(NC(=O)[C@H]3[C@H](c4cc(Cl)cc(Cl)c4)C3(Cl)Cl)ccc2Cl)n1 (relative stereo) [F505, tert-Butyl (6-(2-chloro-5-(trans-2,2-dichloro-3-(3,5-dichlorophenyl)cyclopropane-1-carboxamido)benzamido)pyridin-2-yl)carbamate]
pest or weed control at 50 µg/cm2 [1]: 50 to 100% | pest or weed control at 50 µg/cm2 [2]: 50 to 100%

O=C(Nc1ncc(F)cc1F)c1cc(NC(=O)[C@H]2[C@H](c3cc(Cl)cc(C(F)F)c3)C2(Cl)Cl)ccc1Cl (relative stereo) [F584, 2-Chloro-5-(trans-2,2-dichloro-3-(3-chloro-5-(difluoromethyl)phenyl)cyclopropane-1-carboxamido)-N-(3,5-difluoropyridin-2-yl)benzamide]
pest or weed control at 50 µg/cm2 [1]: 50 to 100% | pest or weed control at 50 µg/cm2 [2]: 50 to 100%

O=C(Nc1ccc(F)cc1)c1cc(NC(=O)[C@H]2[C@H](c3cc(F)cc(Cl)c3)C2(Cl)Cl)ccc1Cl (relative stereo) [PF1, trans-2-Chloro-5-(2,2-dichloro-3-(3-chloro-5-fluorophenyl)cyclopropane-1-carboxamido)-N-(4-fluorophenyl)benzamide]
pest or weed control at 50 µg/cm2 [1]: 50 to 100% | pest or weed control at 50 µg/cm2 [2]: 50 to 100%

CN(C(=O)c1cc(NC(=O)[C@H]2[C@H](c3cc(F)cc(Cl)c3)C2(Cl)Cl)ccc1Cl)c1ccc(F)cc1 (relative stereo) [PF2, trans-2-Chloro-5-(2,2-dichloro-3-(3-chloro-5-fluorophenyl)cyclopropane-1-carboxamido)-N-(4-fluorophenyl)-N-methylbenzamide]
pest or weed control at 50 µg/cm2 [1]: 50 to 100% | pest or weed control at 50 µg/cm2 [2]: 50 to 100%

CN(C(=O)c1cc(NC(=O)[C@H]2[C@H](c3cc(Cl)cc(Cl)c3)C2(Br)Br)ccc1Cl)c1ccc(F)cc1 (relative stereo) [PF7, trans-2-Chloro-5-(2,2-dibromo-3-(3,5-dichlorophenyl)cyclopropane-1-carboxamido)-N-(4-fluorophenyl)-N-methylbenzamide]
pest or weed control at 50 µg/cm2 [1]: 50 to 100% | pest or weed control at 50 µg/cm2 [2]: 50 to 100%

CN(C(=O)OC(C)(C)C)c1ccc(NC(=O)c2cc(NC(=O)[C@H]3[C@H](c4cc(Cl)cc(Cl)c4)C3(Cl)Cl)ccc2Cl)cc1 (relative stereo) [PF12, trans-tert-Butyl-(4-(2-chloro-5-(2,2-dichloro-3-(3,5-dichlorophenyl)cyclopropane-1-carboxamido)benzamido)phenyl)(methyl)carbamate]
pest or weed control at 50 µg/cm2 [1]: 50 to 100% | pest or weed control at 50 µg/cm2 [2]: 50 to 100%

CC(=O)N(C)c1ccc(NC(=O)c2cc(NC(=O)[C@H]3[C@H](c4cc(Cl)cc(Cl)c4)C3(Cl)Cl)ccc2Cl)cc1 (relative stereo) [PF14, trans-2-Chloro-5-(2,2-dichloro-3-(3,5-dichlorophenyl)cyclopropane-1-carboxamido)-N-(4-(N-methylacetamido)phenyl)benzamide]
pest or weed control at 50 µg/cm2 [1]: 50 to 100% | pest or weed control at 50 µg/cm2 [2]: 50 to 100%

COCC(=O)Nc1ccc(NC(=O)c2cc(NC(=O)[C@H]3[C@H](c4cc(Cl)cc(Cl)c4)C3(Cl)Cl)ccc2Cl)cc1 (relative stereo) [PF27, trans-2-Chloro-5-(2,2-dichloro-3-(3,5-dichlorophenyl)cyclopropane-1-carboxamido)-N-(4-(2-methoxyacetamido)phenyl)benzamide]
pest or weed control at 50 µg/cm2 [1]: 50 to 100% | pest or weed control at 50 µg/cm2 [2]: 50 to 100%

O=C(Cc1ccccc1)Nc1ccc(NC(=O)c2cc(NC(=O)[C@H]3[C@H](c4cc(Cl)cc(Cl)c4)C3(Cl)Cl)ccc2Cl)cc1 (relative stereo) [PF28, trans-2-Chloro-5-(2,2-dichloro-3-(3,5-dichlorophenyl)cyclopropane-1-carboxamido)-N-(4-(2-phenylacetamido)phenyl)benzamide]
pest or weed control at 50 µg/cm2 [1]: 50 to 100% | pest or weed control at 50 µg/cm2 [2]: 50 to 100%

CN(C(=O)C(F)(F)F)c1ccc(NC(=O)c2cc(NC(=O)[C@H]3[C@H](c4cc(Cl)cc(Cl)c4)C3(Cl)Cl)ccc2Cl)cc1 (relative stereo) [PF29, trans-2-Chloro-5-(2,2-dichloro-3-(3,5-dichlorophenyl)cyclopropane-1-carboxamido)-N-(4-(2,2,2-trifluoro-N-methylacetamido)phenyl)benzamide]
pest or weed control at 50 µg/cm2 [1]: 50 to 100% | pest or weed control at 50 µg/cm2 [2]: 50 to 100%

O=C(Nc1ccc(F)cc1)c1cc(NC(=O)[C@H]2[C@H](c3ccc(Cl)c(F)c3)C2(Cl)Cl)ccc1Cl (relative stereo) [PF34, trans-2-Chloro-5-(2,2-dichloro-3-(4-chloro-3-fluorophenyl)cyclopropane-1-carboxamido)-N-(4-fluorophenyl)benzamide]
pest or weed control at 50 µg/cm2 [1]: 50 to 100% | pest or weed control at 50 µg/cm2 [2]: 50 to 100%

O=C(Nc1ccc(F)cc1F)c1cc(NC(=O)[C@H]2[C@H](c3cc(Cl)cc(Br)c3)C2(Cl)Cl)ccc1Cl (relative stereo) [PF39, 5-(trans-3-(3-Bromo-5-chlorophenyl)-2,2-dichlorocyclopropane-1-carboxamido)-2-chloro-N-(2,4-difluorophenyl)benzamide]
pest or weed control at 50 µg/cm2 [1]: 50 to 100% | pest or weed control at 50 µg/cm2 [2]: 50 to 100%

CC(=O)Nc1ccc(NC(=O)c2cc(NC(=O)[C@H]3[C@H](c4ccc(Cl)c(Cl)c4)C3(Cl)Cl)ccc2Cl)c(F)c1 (relative stereo) [PF41, trans-N-(4-Acetamido-2-fluorophenyl)-2-chloro-5-(2,2-dichloro-3-(3,4-dichlorophenyl)cyclopropane-1-carboxamido)benzamide]
pest or weed control at 50 µg/cm2 [1]: 50 to 100% | pest or weed control at 50 µg/cm2 [2]: 50 to 100%

Cc1cc(F)cc(C)c1NC(=O)c1cc(NC(=O)[C@H]2[C@H](c3cc(Cl)cc(Cl)c3)C2(Cl)Cl)ccc1Cl (relative stereo) [PF43, trans-2-Chloro-5-(2,2-dichloro-3-(3,5-dichlorophenyl)cyclopropane-1-carboxamido)-N-(4-fluoro-2,6-dimethylphenyl)benzamide]
pest or weed control at 50 µg/cm2 [1]: 50 to 100% | pest or weed control at 50 µg/cm2 [2]: 50 to 100%

N#CSc1ccc(NC(=O)c2cc(NC(=O)[C@H]3[C@H](c4cc(Cl)cc(Cl)c4)C3(Cl)Cl)ccc2Cl)cc1 (relative stereo) [PF45, trans-2-Chloro-5-(2,2-dichloro-3-(3,5-dichlorophenyl)cyclopropane-1-carboxamido)-N-(4-thiocyanatophenyl)benzamide]
pest or weed control at 50 µg/cm2 [1]: 50 to 100% | pest or weed control at 50 µg/cm2 [2]: 50 to 100%

Cc1cc(F)ccc1NC(=O)c1cc(NC(=O)[C@H]2[C@H](c3cc(Cl)c(Cl)c(Cl)c3)C2(Cl)Cl)ccc1Cl (relative stereo) [PF47, trans-2-Chloro-5-(2,2-dichloro-3-(3,4,5-trichlorophenyl)cyclopropane-1-carboxamido)-N-(4-fluoro-2-methylphenyl)benzamide]
pest or weed control at 50 µg/cm2 [1]: 50 to 100% | pest or weed control at 50 µg/cm2 [2]: 50 to 100%

Cc1c(F)ccc(NC(=O)c2cc(NC(=O)[C@H]3[C@H](c4cc(Cl)cc(Cl)c4)C3(Cl)Cl)ccc2Cl)c1F (relative stereo) [PF55, trans-2-Chloro-5-(2,2-dichloro-3-(3,5-dichlorophenyl)cyclopropane-1-carboxamido)-N-(2,4-difluoro-3-methylphenyl)benzamide]
pest or weed control at 50 µg/cm2 [1]: 50 to 100% | pest or weed control at 50 µg/cm2 [2]: 50 to 100%

Cc1cc(C(F)(C(F)(F)F)C(F)(F)F)cc(C)c1NC(=O)c1cc(NC(=O)[C@H]2[C@H](c3cc(Cl)cc(Cl)c3)C2(Cl)Cl)ccc1Cl (relative stereo) [PF60, trans-2-Chloro-5-(2,2-dichloro-3-(3,5-dichlorophenyl)cyclopropane-1-carboxamido)-N-(2,6-dimethyl-4-(perfluoropropan-2-yl)phenyl)benzamide]
pest or weed control at 50 µg/cm2 [1]: 50 to 100% | pest or weed control at 50 µg/cm2 [2]: 50 to 100%
